Assay results as given in patent US6737383B1, “Herbicidal oxadiazolidines” (priority 1999, dated 2004).

Experiments:
[1] = test system: bedstraw; test: Test B pre/postemergence bedstraw; format: in vivo, Galium aparine
How it was run: (§1)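 Response is a visual 0-to-10 score relative to untreated plants, where 0 means no effect and 10 means complete control, taken twelve to sixteen days after application. Treatments went onto soil at planting and onto foliage of 1- to 4-leaf plants, using a surfactant-containing non-phytotoxic solvent.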

[2] = test system: blackgrass; test: Test B pre/postemergence blackgrass; format: in vivo, Alopecurus myosuroides
How it was run: as §1

[3] = test system: surinam grass; test: Test B pre/postemergence surinam grass; format: in vivo, Brachiaria decumbens
How it was run: as §1

[4] = test system: cocklebur; test: Test B pre/postemergence cocklebur; format: in vivo, Xanthium strumarium
How it was run: as §1

[5] = test system: corn; test: Test B pre/postemergence corn; format: in vivo, Zea mays
How it was run: as §1

[6] = test system: crabgrass; test: Test B pre/postemergence crabgrass; format: in vivo, Digitaria sanguinalis
How it was run: as §1

[7] = test system: morningglory; test: Test B pre/postemergence morningglory; format: in vivo, Ipomoea hederacea
How it was run: as §1

[8] = test system: pigweed; test: Test B pre/postemergence pigweed; format: in vivo, Amaranthus retroflexus
How it was run: as §1

[9] = test system: rape; test: Test B pre/postemergence rape; format: in vivo, Brassica napus
How it was run: as §1

[10] = test system: sugar beet; test: Test B pre/postemergence sugar beet; format: in vivo, Beta vulgaris
How it was run: as §1

[11] = test system: velvetleaf; test: Test B pre/postemergence velvetleaf; format: in vivo, Abutilon theophrasti
How it was run: as §1

[12] = test system: wheat; test: Test B pre/postemergence wheat; format: in vivo, Triticum aestivum
How it was run: as §1

[13] = test system: wild oat; test: Test B pre/postemergence wild oat; format: in vivo, Avena fatua
How it was run: as §1

[14] = test system: purple nutsedge; test: Test B pre/postemergence purple nutsedge; format: in vivo, Cyperus rotundus
How it was run: as §1

[15] = test system: smallflower flatsedge; test: Test B flood test smallflower flatsedge; format: in vivo, Cyperus difformis
How it was run: (§2)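 Each value is a visual injury score relative to controls, with 10 meaning complete control and 0 no effect. Evaluation took place twelve to sixteen days after the 2-leaf-stage plants were treated and kept in the greenhouse.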

[16] = test system: duck salad; test: Test B flood test duck salad; format: in vivo, Heteranthera limosa
How it was run: as §2

[17] = Postemergence, Rate 62 g/ha, scale 0 to 10, 0 is no effect, 10 is complete control
[18] = Postemergence, Rate 125 g/ha, scale of 0 to 10 where 0 is no effect and 10 is complete control
[19] = Postemergence, Rate 250 g/ha, scale of 0 to 10, 0 is no effect, 10 is complete control
[20] = Preemergence, Rate 62 g/ha, scale 0 to 10 (0 no effect, 10 complete control)
[21] = Preemergence, Rate 125 g/ha, scale of 0 to 10 where 0 is no effect and 10 is complete control
[22] = Preemergence, Rate 250 g/ha, scale 0 to 10 (0 no effect, 10 complete control)
[23] = Preemergence, Rate 500 g/ha, scale of 0 to 10 where 0 is no effect and 10 is complete control
[24] = Postemergence, Rate 500 g/ha, scale of 0 to 10 where 0 is no effect and 10 is complete control
[25] = Rate 62 g/ha, flood test species, Pre-emergence, visual evaluation after twelve to sixteen days
[26] = Rate 125 g/ha, under heading Pre-emergence, flood test species, visual evaluation after twelve to sixteen days
[27] = Rate 250 g/ha, Pre-emergence (flood test species), scale 0 to 10, 0 is no effect, 10 is complete control
[28] = Rate 500 g/ha, Pre-emergence section of Table B, 0 to 10 scale (0 no effect, 10 complete control)

CCOC(Cn1c(=O)on(C(=O)N(c2ccc(F)cc2)C(C)C)c1=O)OCC [Compound 629]
Plant response rating, Bedstraw [1, 17]: 3 | Plant response rating, Bedstraw [1, 18]: 5 | Bedstraw plant response rating [1, 19]: 8 | Bedstraw plant response rating [1, 20]: 0 | Bedstraw plant response rating [1, 21]: 0 | Plant response rating, Bedstraw [1, 22]: 3 | Plant response rating, Bedstraw [1, 23]: 8 | Plant response rating, Blackgrass [2, 17]: 3 | Plant response rating, Blackgrass [2, 18]: 8 | Blackgrass plant response rating [2, 19]: 8 | Plant response rating, Blackgrass [2, 24]: 8 | Blackgrass plant response rating [2, 20]: 4 | Blackgrass plant response rating [2, 21]: 8 | Plant response rating, Blackgrass [2, 22]: 8 | Plant response rating, Blackgrass [2, 23]: 10 | Plant response rating, B. signalgrass [3, 17]: 0 | Plant response rating, B. signalgrass [3, 18]: 1 | B. signalgrass plant response rating [3, 19]: 3 | Plant response rating, B. signalgrass [3, 24]: 7 | B. signalgrass plant response rating [3, 20]: 0 | B. signalgrass plant response rating [3, 21]: 2 | Plant response rating, B. signalgrass [3, 22]: 5 | Plant response rating, B. signalgrass [3, 23]: 8 | Plant response rating, Cocklebur [4, 17]: 0 | Plant response rating, Cocklebur [4, 18]: 0 | Cocklebur plant response rating [4, 19]: 0 | Plant response rating, Cocklebur [4, 24]: 2 | Cocklebur plant response rating [4, 20]: 0 | Cocklebur plant response rating [4, 21]: 0 | Plant response rating, Cocklebur [4, 22]: 3 | Plant response rating, Cocklebur [4, 23]: 7 | Plant response rating, Corn [5, 17]: 3 | Plant response rating, Corn [5, 18]: 3 | Corn plant response rating [5, 19]: 4 | Plant response rating, Corn [5, 24]: 6 | Corn plant response rating [5, 20]: 1 | Corn plant response rating [5, 21]: 2 | Plant response rating, Corn [5, 22]: 6 | Plant response rating, Corn [5, 23]: 8 | Plant response rating, Crabgrass [6, 17]: 1 | Plant response rating, Crabgrass [6, 18]: 3 | Crabgrass plant response rating [6, 19]: 8 | Plant response rating, Crabgrass [6, 24]: 9 | Crabgrass plant response rating [6, 20]: 7 | Crabgrass plant response rating [6, 21]: 9 | Plant response rating, Crabgrass [6, 22]: 9 | Plant response rating, Crabgrass [6, 23]: 10 | Plant response rating, Morningglory [7, 17]: 2 | Plant response rating, Morningglory [7, 18]: 2 | Morningglory plant response rating [7, 19]: 3 | Plant response rating, Morningglory [7, 24]: 3 | Morningglory plant response rating [7, 20]: 0 | Morningglory plant response rating [7, 21]: 0 | Plant response rating, Morningglory [7, 22]: 0 | Plant response rating, Morningglory [7, 23]: 4 | Plant response rating, Redroot pigweed [8, 17]: 0 | Redroot pigweed plant response rating [8, 19]: 2 | Redroot pigweed plant response rating [8, 20]: 2 | Redroot pigweed plant response rating [8, 21]: 10 | Plant response rating, Redroot pigweed [8, 22]: 10 | Plant response rating, Redroot pigweed [8, 23]: 10 | Plant response rating, Rape [9, 17]: 0 | Plant response rating, Rape [9, 18]: 0 | Rape plant response rating [9, 19]: 0 | Plant response rating, Rape [9, 24]: 3 | Rape plant response rating [9, 20]: 0 | Rape plant response rating [9, 21]: 0 | Plant response rating, Rape [9, 22]: 4 | Plant response rating, Rape [9, 23]: 9 | Plant response rating, Sugarbeets [10, 17]: 0 | Plant response rating, Sugarbeets [10, 18]: 0 | Sugarbeets plant response rating [10, 19]: 0 | Sugarbeets plant response rating [10, 20]: 2 | Plant response rating, Sugarbeets [10, 22]: 3 | Plant response rating, Sugarbeets [10, 23]: 7 | Plant response rating, Velvetleaf [11, 17]: 0 | Plant response rating, Velvetleaf [11, 18]: 5 | Velvetleaf plant response rating [11, 19]: 5 | Velvetleaf plant response rating [11, 20]: 3 | Velvetleaf plant response rating [11, 21]: 6 | Plant response rating, Velvetleaf [11, 22]: 6 | Plant response rating, Velvetleaf [11, 23]: 8 | Plant response rating, Wheat [12, 17]: 0 | Plant response rating, Wheat [12, 18]: 0 | Wheat plant response rating [12, 19]: 0 | Wheat plant response rating [12, 20]: 0 | Wheat plant response rating [12, 21]: 0 | Plant response rating, Wheat [12, 22]: 3 | Plant response rating, Wheat [12, 23]: 3 | Plant response rating, Wild oats [13, 17]: 0 | Plant response rating, Wild oats [13, 18]: 0 | Wild oats plant response rating [13, 20]: 0 | Wild oats plant response rating [13, 21]: 0 | Plant response rating, Wild oats [13, 22]: 9 | Plant response rating, Wild oats [13, 23]: 9 | Plant response rating, Nutsedge [14, 17]: 0 | Plant response rating, Nutsedge [14, 18]: 0 | Nutsedge plant response rating [14, 19]: 0 | Plant response rating, Nutsedge [14, 24]: 0 | Nutsedge plant response rating [14, 20]: 0 | Nutsedge plant response rating [14, 21]: 2 | Plant response rating, Nutsedge [14, 22]: 5 | Plant response rating, Nutsedge [14, 23]: 5 | Plant response rating, S. Flatsedge (0 to 10 scale, 0 is no effect, 10 is complete control) [15, 25]: 0 | S. Flatsedge plant response rating (0 to 10 scale, 0 is no effect, 10 is complete control) [15, 26]: 0 | S. Flatsedge plant response rating [15, 27]: 0 | S. Flatsedge plant response rating [15, 28]: 0 | Plant response rating, Ducksalad (0 to 10 scale, 0 is no effect, 10 is complete control) [16, 25]: 0 | Ducksalad plant response rating (0 to 10 scale, 0 is no effect, 10 is complete control) [16, 26]: 0 | Ducksalad plant response rating [16, 27]: 0 | Ducksalad plant response rating [16, 28]: 0
